# Measurements reported in patent publication EP4741420A1, “PHARMACEUTICAL COMPOSITION FOR PREVENTING OR TREATING OBESITY COMPRISING GLP ANALOGUE AS ACTIVE INGREDIENT” (priority 2023, dated 2025).
# Peptide text beside a SMILES is read from it.
# Legend:
# GLP-2 = target: T1, GLP-2 (Homo sapiens, UniProt O95838); test: GLP-2 activity, cell-based cAMP assay (same method as Example 2); conditions: Example 5, relative to GLP-2
# T1 sequence (O95838 1-553): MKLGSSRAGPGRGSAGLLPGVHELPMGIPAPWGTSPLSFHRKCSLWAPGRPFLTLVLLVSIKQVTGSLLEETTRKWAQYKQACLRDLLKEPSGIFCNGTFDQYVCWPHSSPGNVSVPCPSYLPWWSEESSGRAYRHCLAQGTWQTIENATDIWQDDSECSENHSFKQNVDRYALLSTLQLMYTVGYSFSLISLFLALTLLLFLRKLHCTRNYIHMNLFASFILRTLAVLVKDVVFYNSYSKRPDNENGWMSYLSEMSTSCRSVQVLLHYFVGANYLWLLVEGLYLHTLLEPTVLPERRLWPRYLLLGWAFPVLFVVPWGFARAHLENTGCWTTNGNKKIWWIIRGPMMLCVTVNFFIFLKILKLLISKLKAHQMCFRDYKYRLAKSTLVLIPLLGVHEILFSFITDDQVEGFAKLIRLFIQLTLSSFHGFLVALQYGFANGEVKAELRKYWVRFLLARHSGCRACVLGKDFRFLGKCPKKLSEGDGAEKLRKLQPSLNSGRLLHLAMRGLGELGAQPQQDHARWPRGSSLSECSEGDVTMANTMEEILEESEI
# [1] = tested on: diet-induced obesity (DIO) mouse model; test: DIO mouse model QD: fat weight by tissue (Example 7-3); assay type: in vivo; conditions: fat weight of tissue, DIO mice, QD (once daily), 45 nmol/kg/dose
# Description: (§1) The anti-obesity effects of SEQ ID NO: 1 prepared in Example 1, and SEQ ID NOs: 6 and 7 prepared in Example 4 were analyzed. […] In addition, as an experimental model, a diet-induced obesity (DIO) mouse model fed a high-fat diet for 3 months was used.
# To analyze the anti-obesity effect, the amount of fat by tissue was measured postmortem to further confirm the efficacy of the peptide in obesity. Specifically, the epididymal, mesenteric, inguinal, and perirenal tissues of animals euthanized by decapitation were excised to measure the fat weights for each tissue and then photographed.
# [2] = tested on: diet-induced obesity (DIO) mouse model; test: DIO mouse model QD: body composition by DEXA (Example 7-2); assay type: in vivo, mice; conditions: QD (once daily), 45 nmol/kg/dose
# Description: as §1
# To analyze the anti-obesity effect, body composition analysis was conducted using Dual Energy X-ray Absorptiometry (DEXA). The DEXA imaging system (VET DXA iNSiGHT) is for measuring the bone density and body fat of an experimental animal through dual X-ray transmission, and after the completion of experimental material administration, DEXA fat mass and muscle mass were measured for each individual. Accordingly, body weight was categorized into BMC, lean, and fat, and the fat reduction was analyzed to provide a more objective assessment of the anti-obesity effect according to Example 7-1.
# [3] = tested on: diet-induced obesity (DIO) mouse model; test: DIO mouse model QD: obesity-related factors in plasma (Example 7-4); assay type: in vivo; conditions: DIO mice, QD (once daily), 45 nmol/kg/dose
# Description: In addition, after the experiment was completed, blood and serum samples were obtained from each mouse model, and biochemical tests were performed for blood glucose, total cholesterol, high-density lipoprotein (HDL), low-density lipoprotein (LDL), and triglycerides.
# as §1
# To analyze the anti-obesity effect, mouse plasma was obtained postmortem to measure obesity-related factors in plasma. Here, the analysis method was the same as described in Example 3.
# C57BL/6 DIO mice = test: Diet-induced obesity mouse model: body weight and food intake (Example 3); assay type: in vivo; conditions: 4 weeks administration, 0.20 mg/kg/dose
# [4] = tested on: diet-induced obesity (DIO) mouse model; test: DIO mouse model QD: liver damage markers AST/ALT (Example 8-1); assay type: in vivo; conditions: serum, DIO mice, QD (once daily), 45 nmol/kg/dose
# Description: The anti-obesity effect in the liver was analyzed for the same materials used in Example 7. Specifically, liver damage marker (AST/ALT) analysis, liver weight/fatty liver examination, hepatic triglyceride measurement, and liver ORO staining analysis were performed.
# To analyze the liver damage markers, AST/ALT, blood biochemical analysis was performed on the blood of a material-treated obese mouse model. Specifically, the collected blood was divided into two tubes, approximately 200 µL of the blood was put into each EDTA tube, and the remaining volume was injected into a vacutainer tube containing a coagulant. Blood collected in an EDTA tube was used to measure glycated hemoglobin on the same day, while the blood collected in the vacutainer tube was left at room temperature for 15 to 20 minutes to coagulate, and then centrifuged for 10 minutes to obtain serum. The serum was used for blood biochemical analysis.
# [5] = tested on: diet-induced obesity (DIO) mouse model; test: DIO mouse model QD: hepatic triglyceride measurement (Example 8-3); assay type: in vivo; conditions: liver tissue, DIO mice, QD (once daily), 45 nmol/kg/dose
# Description: To measure hepatic triglyceride levels, triglycerides in liver tissue excised on the necropsy day were analyzed using a measurement kit (Biomax, Cat no. BM-TGR-100).
# [6] = tested on: diet-induced obesity (DIO) mouse model; test: DIO mouse model QD: liver Oil Red O staining (Example 8-4); assay type: in vivo; conditions: DIO mice, QD (once daily), 45 nmol/kg/dose
# Description: Finally, to confirm the anti-obesity effect in the liver, liver Oil Red O staining analysis was performed. ORO staining is a staining method used to detect triglycerides (fat) in adipose-related diseases, and used to differentiate fat embolism, liposarcoma, hepatic steatosis, and lipid accumulation disorders. In addition, it can also detect lipid complexes, such as phospholipids. For ORO analysis, liver tissue was processed in 30% sucrose in a refrigerator for 3 days to prepare frozen tissue sections, which were used to prepare OCT-embedded frozen blocks. Cryosections were prepared and stained with ORO.
# [7] = tested on: diet-induced obesity (DIO) mouse model; test: DIO mouse model QD: weight loss and cumulative food intake (Example 7-1); assay type: in vivo; conditions: DIO mice, QD (once daily), 4-week administration, 45 nmol/kg/dose
# Description: The obesity treatment effect of the long-acting GLP analog prepared in Example 1 was evaluated. Specifically, an obesity animal model was prepared to confirm the obesity treatment effect, and after administering a certain amount of material, the model was subjected to measurement of a body weight and the change in food intake, and biochemical tests. First, to establish a diet-induced obesity mouse model, C57BL/6 DIO mice were fed a high-fat diet for 12 weeks, resulting in a body weight that was 130% that of the control (DIO model). Afterward, the mice were grouped at a specific time point to determine the average weight of the DIO model (46.2±2.2), followed by drug administration to the mice for 4 weeks. Here, the body weight and food intake were measured daily.
# as §1
# To analyze the anti-obesity effect, first, the comparative analysis of weight loss effect and cumulative food intake was conducted. The experimental method was the same as described in Example 3.
structure (smiles),measurement,setting,value
"CCCCCCCCCCCCCCCC(=O)N[C@@H](CCC(=O)NCCCC[C@H](NC(=O)[C@H](CCCCN)NC(=O)[C@H](CC(=O)O)NC(=O)[C@@H](NC(=O)[C@@H](NC(=O)[C@H](CCCCN)NC(=O)[C@@H](NC(=O)[C@H](CCC(N)=O)NC(=O)[C@@H](NC(=O)[C@H](CC(C)C)NC(=O)[C@H](Cc1c[nH]c2ccccc12)NC(=O)[C@H](CC(N)=O)NC(=O)[C@@H](NC(=O)[C@H](Cc1ccccc1)NC(=O)[C@H](CC(=O)O)NC(=O)[C@H](CCCNC(=N)N)NC(=O)[C@H](C)NC(=O)[C@H](C)NC(=O)[C@H](CC(C)C)NC(=O)[C@H](C)NC(=O)[C@H](CC(=O)O)NC(=O)[C@H](CC(C)C)NC(=O)[C@H](Cc1ccc(O)cc1)NC(=O)[C@@H](NC(=O)[C@H](CO)NC(=O)[C@H](CC(C)C)NC(=O)[C@H](CC(=O)O)NC(=O)[C@H](CO)NC(=O)[C@@H](NC(=O)[C@H](Cc1ccccc1)NC(=O)[C@@H](NC(=O)CNC(=O)[C@H](CCC(=O)O)NC(=O)CNC(=O)[C@@H](N)Cc1c[nH]cn1)[C@@H](C)O)[C@@H](C)O)[C@@H](C)O)[C@@H](C)CC)[C@@H](C)CC)[C@@H](C)O)[C@@H](C)CC)[C@@H](C)O)C(=O)O)C(=O)O [HU020K2FA] (HELM PEPTIDE1{H.G.E.G.T.F.T.S.D.L.S.T.Y.L.D.A.L.A.A.R.D.F.I.N.W.L.I.Q.T.K.I.T.D.K.K}|PEPTIDE2{[CCCCCCCCCCCCCCCC(=O)[*:2]].[gGlu]}$PEPTIDE1,PEPTIDE2,35:R3-2:R2$$$V2.0; N-terminus and C-terminus assumed)",GLP-2 activity Compared to GLP-2,GLP-2,~ 0.02%
same,Epididymal,[1],1.71±0.16
same,Inguinal,[1],2.37±0.21
same,Mesentric,[1],0.74±0.21
same,Perirenal,[1],0.33±0.08
same,Fat,"[2]; DEXA, DIO mice",9.6 ± 1.0 g
same,Lean,"[2]; DEXA, DIO mice",26.5 ± 1.7 g
same,Weight,"[2]; Table 9, DIO mice",37.5 ± 2.6 g
same,Weight (%) (Normalized to DIO vehicle),"[2]; Table 9, DIO mice",80.3±4.4%
same,HbA1c (%),[3]; blood,4.39±0.21%
same,GLU,[3]; plasma,209.2 ± 9.3 mg/dL
same,HDL,[3]; plasma,100.4 ± 9.3 mg/dL
same,LDL,[3]; plasma,8.9 ± 9.3 mg/dL
same,TCHO,[3]; plasma,198.6 ± 24.3 mg/dL
same,TG,[3]; plasma,75.1 ± 19.4 mg/dL
same,Cumulative food intake,C57BL/6 DIO mice,55.3 ± 4.0 g
same,Weight,C57BL/6 DIO mice,36.6 ± 4.0 g
same,Weight change (%),C57BL/6 DIO mice; compared to day 0,-19.4±4.7%
same,ALT (U/L),[4],34.7±5.9 U/L
same,AST (U/L),[4],68.5±9.2 U/L
same,Liver TG levels (nmol/µ),[5],0.81±0.11 nmol/µ
same,ORO positive area (%),[6],1.41±0.66%
same,Comparison of weight change (%),[7],-16.0±3.2%
same,Weight,[7],37.5 ± 2.6 g
same,Weight (%) (Normalized to DIO vehicle),[7],80.3±4.4%
same,Food intake,[7]; cumulative,16.0 ± 1.8 g
